Test results as given in PubChem BioAssay (NCI).
Several values for one entry are separate records, joined by “and”; a condition that tells them apart may be missing. Equal entries are not always repeated.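 Cultured in 96-well plates, cells were exposed to test compound for 48 hours across five concentrations. At the GI50, growth is halved. TGI denotes the concentration required for complete inhibition of growth.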 Where a SMILES comes first, the peptide text is derived from it.

Experiments:
Test in all cases: inhibition of tumour cell growth, NCI panel, 48 h
CCRF-CEM leukemia = system: CCRF-CEM leukemia
MALME-3M melanoma = system: MALME-3M melanoma
HCC-2998 colon = system: HCC-2998 colon
OVCAR-5 ovarian = system: OVCAR-5 ovarian
CAKI-1 renal = system: CAKI-1 renal
M14 melanoma = system: M14 melanoma
IGROV1 ovarian = system: IGROV1 ovarian
MDA-MB-435 = system: MDA-MB-435
SNB-19 CNS = system: SNB-19 CNS
SF-539 CNS = system: SF-539 CNS

SMILES | TGI (CCRF-CEM leukemia) [µM] | TGI (MALME-3M melanoma) | TGI (HCC-2998 colon) [µM] | TGI (OVCAR-5 ovarian) [µM] | TGI (CAKI-1 renal) [µM] | TGI (M14 melanoma) [µM] | TGI (IGROV1 ovarian) [µM] | TGI (MDA-MB-435) | TGI (SNB-19 CNS) [µM] | TGI (SF-539 CNS) [µM] | GI50 (CCRF-CEM leukemia) [µM] | GI50 (MALME-3M melanoma) [µM] | GI50 (OVCAR-5 ovarian) [µM] | GI50 (M14 melanoma) [µM] | GI50 (MDA-MB-435) [µM] | GI50 (SNB-19 CNS) [µM] | GI50 (CAKI-1 renal) [µM] | GI50 (IGROV1 ovarian) [µM] | GI50 (SF-539 CNS) [µM]
CCOC(=O)C12CC(C)=C(C)CC1CCCc1ccccc12 (centres undefined) | 41.6 | 53.5 µM | 28.1 | 50.9 | > 100 | > 100 | > 100 | 97.2 µM | 83 | 85.7 |  |  |  |  |  |  |  |  | 
COP(=O)(OC)[C@H](O)[C@H]1C[C@@H]1c1ccccc1 |  | > 100 µM | > 100 | > 100 | > 100 | > 100 | > 100 | > 100 µM | > 100 |  |  |  |  |  |  |  |  |  | 
COc1ccc(N=Cc2ccc(N(CCC#N)S(=O)(=O)c3ccccc3)cc2C)cc1 | > 100 | 93.7 µM | > 100 | > 100 | > 100 | 71.5 | > 100 |  | > 100 | > 100 |  |  |  |  |  |  |  |  | 
COc1cc(C2C(=O)C(Cl)N2Nc2nc(C)cc(=O)[nH]2)cc(OC)c1OC (centres undefined) |  |  | 33 | > 100 |  | 26.5 | 35 |  | > 100 | 35.1 |  |  |  |  |  |  |  |  | 
Cc1ccc2c3c1[C@@H]1O[C@@H]1c1cccc(c1-3)[C@@H]1O[C@H]21 |  | 31 µM |  | 34 | 32.9 | 25.1 |  | 31.4 µM | 49.9 |  |  |  |  |  |  |  |  |  | 
COc1cccc(NC(=O)CC(=O)NN2C(=O)/C(=C/c3ccc(N(CCC#N)CCC#N)cc3)N=C2c2cc([N+](=O)[O-])ccc2Cl)c1 | > 100 | > 100 µM | > 100 | 72.3 | > 100 | > 100 | > 100 |  | > 100 | > 100 |  |  |  |  |  |  |  |  | 
Cc1cn(Cc2cn(CC3OC(n4cc(C)c(=O)[nH]c4=O)CC3O)nn2)c(=O)[nH]c1=O (centres undefined) | > 100 | > 100 µM | > 100 | > 100 | > 100 | > 100 |  | > 100 µM | > 100 | > 100 |  |  |  |  |  |  |  |  | 
COc1ccc(N=Nc2c(N)nn(C)c2N)cc1 | > 100 | > 100 µM |  | > 100 | > 100 | > 100 | > 100 |  | > 100 | > 100 |  |  |  |  |  |  |  |  | 
CCCCCCCCCCCCSC(=S)c1c(C)[nH]n(CCCCCCCCCCCC)c1=O | > 100 | > 100 µM | > 100 | > 100 | > 100 |  | > 100 |  | > 100 | > 100 |  |  |  |  |  |  |  |  | 
COC(=O)c1ccc2c(c1)sc1nc(-c3ccc(OC)cc3)cn12 | > 100 | > 100 µM | > 100 | > 100 | > 100 | > 100 | > 100 | > 100 µM | > 100 | > 100 |  |  |  |  |  |  |  |  | 
CCCC[C@H]1C(=O)O[C@H](C)[C@H](NC(=O)c2cccc(NC=O)c2OC)C(=O)O[C@@H](C)[C@@H]1OC(=O)CC(C)C (tested in a mixture with another compound) | 24.4 | 46.5 µM | 80.6 | 51.6 | 31 | 46.6 | 15 | 25.6 µM | 22.3 | 51.9 |  |  |  |  |  |  |  |  | 
CCC(C)C(NC(=O)C(CC(C)C)NC(=O)CNC(=O)C(NC(=O)C1CCCN1C(=O)C(CC(C)C)NC(=O)C(N)Cc1ccccc1)C(C)CC)C(=O)NC(CC(C)C)C(N)=O (centres undefined) (H-FLPIGLIL-NH2; configuration not given here) | > 75 | > 75 µM |  | > 75 | > 75 | > 75 | > 75 | > 75 µM | > 75 | > 75 |  |  |  |  |  |  |  |  | 
COc1ccc2c(c1)CCCc1c-2nc2ccccc2c1N | 32 | 27.1 µM | 3.34 | 23.9 | 26.8 | 21.1 | 28.7 | 24.8 µM | 31.8 | 24.8 |  |  |  |  |  |  |  |  | 
O=C(CSSCC(=O)OCCS(=O)(=O)Nc1ccc(Br)cc1)OCCS(=O)(=O)Nc1ccc(Br)cc1 | > 100 | 22.8 µM | 25.9 | 84.7 | 68.4 | 39.1 | 88.7 |  | > 100 | 32.8 |  |  |  |  |  |  |  |  | 
O=c1c(-c2ccccc2)c(SCCN2CCOCC2)n(-c2ccccc2)c(=S)n1-c1ccccc1 | > 100 | > 100 µM | > 100 | > 100 | > 100 |  | > 100 | > 100 µM |  | > 100 |  |  |  |  |  |  |  |  | 
CCCCCCCCCCCCCCCCCC(=O)OCC1OC(OC)C(NC(=O)N(CCCl)N=O)C(O)C1O (centres undefined) |  | 78.3 µM | > 100 | > 100 | > 100 | > 100 | > 100 |  | > 100 | 24.2 |  |  |  |  |  |  |  |  | 
O=c1[nH]c(=O)n(CCOCP(=O)(O)O)nc1Br | > 100 | > 100 µM | > 100 | > 100 | > 100 | > 100 | > 100 | > 100 µM | > 100 | > 100 |  |  |  |  |  |  |  |  | 

SMILES | TGI (CCRF-CEM leukemia) [µM] | TGI (MALME-3M melanoma) | TGI (HCC-2998 colon) [µM] | TGI (OVCAR-5 ovarian) [µM] | TGI (CAKI-1 renal) [µM] | TGI (M14 melanoma) [µM] | TGI (IGROV1 ovarian) [µM] | TGI (MDA-MB-435) | TGI (SNB-19 CNS) [µM] | TGI (SF-539 CNS) [µM] | GI50 (CCRF-CEM leukemia) [µM] | GI50 (MALME-3M melanoma) [µM] | GI50 (OVCAR-5 ovarian) [µM] | GI50 (M14 melanoma) [µM] | GI50 (MDA-MB-435) [µM] | GI50 (SNB-19 CNS) [µM] | GI50 (CAKI-1 renal) [µM] | GI50 (IGROV1 ovarian) [µM] | GI50 (SF-539 CNS) [µM]
Cc1cc(=O)n2c3c(c4c(cc13)c(CN(C)C)cc(=O)n4C)OC2 | > 100 | 30.4 µM | 35.9 | > 77 | 97 | 31.2 | 41.9 | > 58.2 µM | > 74.6 | 24.2 |  |  |  |  |  |  |  |  | 
NC(=O)CCSC(CC(=O)c1ccc(Cl)cc1)c1ccc(Cl)cc1 (centres undefined) | 8.11 | 66.8 µM | 32.7 | > 100 | 42.6 | 83.3 | 34.8 | 39.9 µM | > 100 | 39.4 |  |  |  |  |  |  |  |  | 
Cn1c(=O)ccc2c(=O)c3ccccc3oc21 | > 100 | > 100 µM | > 100 | > 100 | > 100 | > 100 | > 100 | > 100 µM | > 100 | > 100 |  |  |  |  |  |  |  |  | 
O=S(=O)(O)c1ccc2c(N=Nc3ccccc3)c(O)ccc2c1 | > 100 | > 100 µM | > 100 | > 100 | > 100 | > 100 | > 100 | > 100 µM | > 100 | > 100 |  |  |  |  |  |  |  |  | 
COc1cc(/C=C2\N=C(c3ccccc3)N(c3nc4ccc(Sc5ccccc5)cc4[nH]3)C2=O)cc(OC)c1OC | > 100 | 40.3 µM | 30.3 | > 100 | > 100 | 49.7 | > 100 | 23 µM | > 100 |  |  |  |  |  |  |  |  |  | 
Cn1c2cn[nH]c(=O)c2c2ccc3ccccc3c21 | > 100 | > 100 µM |  | > 100 | > 100 | > 100 | 32.2 | > 100 µM | > 100 | > 100 |  |  |  |  |  |  |  |  | 
O=C(O)CCCN=C(C1=C(O)C(=O)N(c2ccccc2)C1=O)c1ccccc1 | > 100 | > 100 µM | > 100 | > 100 | > 100 | > 100 | > 100 | > 100 µM | > 100 | > 100 |  |  |  |  |  |  |  |  | 
O=c1[nH]c2cc([N+](=O)[O-])c(N/N=C/c3ccc(Cl)cc3Cl)c([N+](=O)[O-])c2[nH]1 | > 100 | > 100 µM |  | > 100 | > 100 | > 100 | 78.3 | > 100 µM | > 100 | > 100 |  |  |  |  |  |  |  |  | 
N=C(N)c1ccc(N=Nc2c(O)ccc3cc4c(N=Nc5ccc(C(=N)N)cc5)c(O)ccc4cc23)cc1 | > 100 | > 100 µM | > 100 | > 100 | > 100 | > 100 | > 100 | > 100 µM | > 100 | > 100 |  |  |  |  |  |  |  |  | 
C=C1c2nc3ccccc3n2C=C(c2ccc(Cl)cc2)N1c1ccc(OCCN2CCCCC2)cc1 |  | 45 µM and > 100 µM | > 100 | > 100 | > 45 | > 100 | > 45 | 45 µM and > 100 µM | > 100 | > 100 | 0.226 | 0.415 | > 100 | > 100 | 0.772 | 4.53 |  |  | 
Cc1ccc(C(=O)Nc2ncn(C3CC(O)C(CO)O3)c(=O)n2)cc1 (centres undefined) | > 100 | > 100 µM | > 100 | > 100 | > 100 |  | > 100 |  | > 100 | > 100 |  |  |  |  |  |  |  |  | 
N#Cc1c(-c2ccc(Cl)cc2)c2c([nH]c1=O)-c1cc([N+](=O)[O-])ccc1CCC2 | > 100 | > 100 µM | 35.7 | 37.6 | 52.6 | 73.4 | 60.3 | > 100 µM | 56.8 | 35 |  |  |  |  |  |  |  |  | 
O=C([CH-]C(=O)c1ccccc1)c1ccccc1.O=C([CH-]C(=O)c1ccccc1)c1ccccc1.O=C([CH-]C(=O)c1ccccc1)c1ccccc1.[Cl-].[Hf+4] |  |  |  | > 100 | 52.4 | 32.9 | > 100 |  | > 100 | 41.8 |  |  | 30.8 | 13.5 |  | 14.1 | 14.2 | 33.3 | 17.2
C/C(=C\C(=N\NC(=N)N)c1ccccc1)c1ccccc1 | 1.8 | 3.5 µM | 1.86 | 3.35 | 1.59 | 2.47 | 2.11 | 2.97 µM | 3.49 | 1.85 |  |  |  |  |  |  |  |  | 
O=CN1CCC23CC(O)CCC2C1Cc1cc(Oc2nnnn2-c2ccccc2)cc(O)c13 (centres undefined) | > 100 | > 100 µM | > 100 | > 100 | > 100 | > 100 | > 100 | > 100 µM | > 100 | > 100 |  |  |  |  |  |  |  |  | 
CCN(CCO)CCNc1ccc(C)c2sc3ccccc3c(=O)c12 | 27.6 | 8.05 µM | 5.2 | 12.5 | 12.6 | 3.23 | 12.9 | 3.74 µM | 24.7 | 10.3 |  |  |  |  |  |  |  |  | 
C=C1CC2C3C=C(C)C4=CC(=O)CC[C@]4(C)C3CC[C@]2(C)[C@@]1(OC(C)=O)C(C)=O (some centres undefined) | > 100 |  |  | > 100 | > 100 |  | > 100 |  | > 100 |  | 2.11 |  | > 100 |  |  | > 100 | 2.96 | > 100 | 
